We go through 1 molecule from patent publication US12410211B2, “V1A receptor partial agonist and method of use” (PharmaIN Corporation, priority 2020, dated 2025).

Data set [1] is described as follows: Acute diuretic activity of Terlipressin, Tolvaptan and combinations in Wistar rats (Example 5). Type of data set: in vivo. The method, then: The animals were then treated with Terlipressin (Bachem, Torrance CA), Tolvaptan (Fisher Scientific, Waltham, MA) and combination of the two compounds at various concentrations administered subcutaneously (n=4). Test articles were Terlipressin 0.05 mg/Kg and 0.15 mg/Kg, Tolvaptan 0.3 mg/Kg, and 1.0 mg/Kg, Terlipressin 0.05 mg/Kg+Tolvaptan 0.3 mg/Kg, Terlipressin 0.05 mg/Kg+Tolvaptan 1.0 mg/Kg, Terlipressin 0.15 mg/Kg+Tolvaptan 0.3 mg/Kg, and Terlipressin 0.15 mg/Kg+1.0 mg/Kg. Furosemide (Fisher Scientific, Waltham, MA) was used as positive control and dosed at 20 mg/kg via oral gavage. Control dosed vehicle group (9% tween 80; Fisher Scientific, Waltham MA) administered subcutaneously was included and the resulting data was subtracted from individual test article data. After the dose, animals were placed in the metabolic cage (Tecniplast; Province of Varese, Italy) and urine was collected and measured at 2, 4 and 8 hours after the dosing of test articles. Urine volumes were divided by the body weight (pre-dose) times 100 to express in ml/100 g body weight.

Data set [2] can be described thus: Therapeutic index (NOAEL/NOEL): paleness, lethargy, ataxia observation in Sprague-Dawley rats (Example 7). Type of data set: in vivo. In short, it runs like this:
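Male Sprague-Dawley rats, 8–10 weeks, under isoflurane (n=3 or 6), dosed IV or SC with test articles. Paleness judged by ear colour beside untreated controls; lethargy and ataxia scored by observation. Index expressed as NOAEL/NOEL ratio.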

Data set [3] in a line: Telemetric evaluation of portal vein pressure in rats with bile duct ligation (Example 9). It is filed as in vivo, Sprague Dawley rats. Particulars: BDL rats n = 4, 41 μg/kg intravenous bolus. The method, then:
For this study, animals (Sprague Dawley rats (240-300 g at surgery from Charles River Laboratory) were maintained at room temperatures (20 to 22° C.) with 14-hour light, 10-hour dark cycle when not performing study procedures. The mean portal vein pressure (MPVP) reduction efficacy of a peptide of Formula ([…] [SEQ ID NO. 13]; Mpa and C are disulfide bonded; represented as TA-1) was compared to terlipressin in telemetered male with Bile Duct Ligation (BDL) and Sham surgery. On Study Day 1, rats received bile duct ligation surgery and telemetry implantation. The BDL group (n=4) had two stands of silk suture tightened and tied to occlude the bile duct; the sham group (n=3) had sutures loosely tied around the bile duct so that no occlusion occurred. After recovery from surgery, all rats had their portal vein pressure monitored continuously via telemetry until Day 22. […] Terlipressin was administered through intravenous bolus into a lateral tail vein on Day 20 and 21. All animals were dosed under manual restraint. Systolic portal vein pressure and diastolic portal vein pressure were measured to calculate the Mean Portal Vein Pressure ([…] was analyzed by averaging 5 minute intervals for the first 4 hours after dose and thereafter averaging 1 hour intervals after dose until 24 hours. […] Telemetric evaluation of […] [SEQ ID NO. 13] and Terlipressin on portal vein pressure in rats with bile duct ligation. The animal room temperatures were set to maintain 20 to 22° C. A 14-hour light, 10-hour dark cycle was implemented unless interrupted by study procedures. Efficacy was assessed by evaluating mean portal vein pressure (MPVP) at different concentrations of Formula 1 and Terlipressin in telemetered male Sprague Dawley rats (240-300 g at surgery from Charles River Laboratory) with Bile Duct Ligation (BDL) and Sham surgery. On Study Day 1, rats received bile duct ligation surgery and telemetry implantation. The BDL group (n=4) had two stands of silk suture tightened and tied to occlude the bile duct; the sham group (n=3) had sutures loosely tied around the bile duct so that no occlusion occurred. After recovery from surgery, all rats had their portal vein pressure monitored continuously via telemetry until Day 22. […] Formula 1 was administered at different concentrations subcutaneously on Day 15 to 19, and Day 23; Terlipressin was administered through intravenous bolus into a lateral tail vein on Day 20 and 21. All animals were dosed under manual restraint. Systolic portal vein pressure and diastolic portal vein pressure were measured to calculate the Mean Portal Vein Pressure ([…] was analyzed by averaging 5 minute intervals for the first 4 hours after dose and thereafter averaging 1 hour intervals after dose until 24 hours.

The target in another data set is V2 (Homo sapiens, UniProt P30518). The conditions noted are these: cited from earlier work.

Structures are written as SMILES. Where a SMILES comes first, the peptide text is derived from it. Bridges are numbered along the chain shown (N, C = ends).

Chain of V2 (P30518 whole entry): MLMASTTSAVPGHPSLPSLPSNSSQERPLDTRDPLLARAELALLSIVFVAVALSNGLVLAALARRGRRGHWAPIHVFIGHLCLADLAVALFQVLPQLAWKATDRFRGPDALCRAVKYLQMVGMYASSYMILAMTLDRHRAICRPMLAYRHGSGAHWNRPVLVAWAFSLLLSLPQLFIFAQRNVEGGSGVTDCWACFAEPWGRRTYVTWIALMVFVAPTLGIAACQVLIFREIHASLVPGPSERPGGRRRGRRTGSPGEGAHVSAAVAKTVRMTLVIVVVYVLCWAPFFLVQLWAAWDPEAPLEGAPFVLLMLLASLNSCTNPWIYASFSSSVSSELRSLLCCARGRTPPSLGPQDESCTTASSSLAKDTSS

Turning to `NCCCC[C@H](NC(=O)[C@@H]1CCCN1C(=O)[C@@H]1CSSC[C@H](NC(=O)CNC(=O)CNC(=O)CN)C(=O)N[C@@H](Cc2ccc(O)cc2)C(=O)N[C@@H](Cc2ccccc2)C(=O)N[C@@H](CCC(N)=O)C(=O)N[C@@H](CC(N)=O)C(=O)N1)C(=O)NCC(N)=O` [Terlipressin, reference compound] (H-GGGCYFQNCPKG-NH2; disulfide 4-9), the “Average mL of Urine per 100 gram body weight 8 hours cumulative (n = 4) minus Vehicle group (Tween 80); (SEM)” value in data set [1] (Terlipressin 0.05 mg/Kg subcutaneous) is given as 0.70 (0.17) mL per 100 gram body weight; in data set [1] (Terlipressin 0.15 mg/Kg subcutaneous) it was 1.32 (0.23) mL per 100 gram body weight. For the same molecule, the “Paleness (Duration, hrs; SD)” value is given as “(3.56 ± 0.06) hrs” in data set [2] (I.V., at the Marked adverse effect dose); “(2.82 ± 0.03) hrs” in data set [2] (I.V., at the Mild adverse effect dose); “(1.3 ± 0.05) hrs” in data set [2] (I.V., at the NOAEL dose); “None observed” in data set [2] (I.V., at the NOEL dose). Further, the “Highest dose with no-observed effect level or paleness (NOEL)” value in data set [2] (I.V., rat) was 5 µg/kg. Moreover, the NOAEL at 24 h in data set [2] (male, Sprague-Dawley, in vivo, iv, I.V., rat, read-out: Highest dose with no-observed adverse effect level without lethargy (NOAEL)) was found to be 0.05 mg/kg. The “Marked adverse effect (Lowest dose first showed Ataxia)” value in data set [2] (rat, in vivo, iv) was 1.5 mg/kg. For the same molecule, the “Mild adverse effect (Lowest dose first showed Lethargy)” value in data set [2] (rat, in vivo, iv) is 0.15 mg/kg. The “Percent decrease (%) in Mean Portal Vein Pressure (MPVP) from BDL baseline prior to treatment” value in data set [3] (Time 1 hr) is recorded as −23%; in data set [3] (Time 4 hr), 11.3%; in data set [3] (Time 7 hr) it was 10.8%; in data set [3] (Time 20 hr), 7.3%. Moreover, at V2, the “V2 or anti-diuretic activity” value is recorded as 3%.

The term NOAEL denotes the highest dose or exposure tested at which no adverse effect was seen.
